Here are results for 69 compounds from PubChem BioAssay AID179 (DTP/NCI, 2004).

This test has as its system CEM cells HIV-1 protection, formazan growth assay. Kind of test: NCI AIDS Antiviral Assay. The note with it: for IC50: measured here: growth of uninfected CEM cells. An outline of the steps: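 Soluble formazan readout of cell growth; CEM cells ± HIV-1; 5 drug concs. ≥50% protection → retest; ≥50% again = moderately active; reproducible 100% = confirmed active.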

Values joined by “and” are separate entries in the source; they are usually repeats but may differ in a detail not shown here. Equal entries are not always repeated. Active and inactive are the calls of the source.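 How the source made its calls: active means compounds giving half or more protection of infected cells from virus-caused growth loss, again on retest; inactive means the rest.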 A value given as a limit tells only on which side of the number the result lay.

As a reminder, the EC50 is the concentration needed to bring the measured effect to its halfway point. By IC50 is commonly meant the concentration that inhibits the measured activity by half.

On to `O=S(=O)(SS(=O)(=O)c1ccccc1)c1ccccc1`, for which the EC50 is more than 115 µM and the IC50 was more than 115 µM.

Regarding `C=C1C(=O)OC2/C=C(\C)CC(O)/C=C(\C)CC(OC(=O)/C(=C\C)COC(C)=O)C12` (stereo not drawn), the EC50 is more than 115 µM and the IC50 was determined as 0.407 µM.

Regarding `CCOC(=O)/C=C/SC(C)(C)C(N)C(=O)O` (stereo not drawn), the EC50 was more than 1000 µM and the half-maximal inhibitory concentration (IC50) was more than 1000 µM.

As to `Nc1c(Cl)ncnc1NCCCNc1ncnc(Cl)c1N`, the result was inactive.

As for `CSC1NC(c2ccc(Cl)cc2)=C(C#N)C(=O)N1C1OCC(OC(C)=O)C(OC(C)=O)C1OC(C)=O` (stereo not drawn), the EC50 is more than 200 µM and the half-maximal inhibitory concentration (IC50) was found to be 30.9 µM.

On to `Cc1n[nH]c(=O)n1N1C(=O)c2ccccc2C1=O`, for which the EC50 is more than 200 µM and the IC50 is more than 200 µM.

Consider `COc1ccc(NC(=O)CC(=O)N/N=C/c2ccc(N(CCC#N)S(C)(=O)=O)cc2)cc1`, for which the EC50 was more than 148 µM and the IC50 was more than 148 µM.

As to `c1ccc2c(c1)sc1scc[n+]12`, the EC50 is more than 617 µM and the half-inhibitory concentration (IC50) came out at 12.9 µM.

Take `C#CCN(Cc1ccc2nc(-c3ccccc3)c(Cl)nc2c1)c1ccc(Cl)c(Cl)c1`: the EC50 is more than 200 µM and the half-inhibitory concentration (IC50) is more than 200 µM.

Turning to `Cc1ccc(S(=O)(=O)C2CC3CC2C2COCC32)cc1` (stereo not drawn), the EC50 was more than 75.9 µM and the half-maximal inhibitory concentration (IC50) was more than 75.9 µM.

`COc1ccccc1NC(=O)C1=C(C)NC(C)=C(C(=O)Nc2ccccc2OC)C1c1ccccc1Cl`: the result was inactive.

As for `O=C(Nc1nc2ncn(CCNCCn3cnc4nc(NC(=O)c5ccccc5)[nH]c(=O)c43)c2c(=O)[nH]1)c1ccccc1`, the EC50 was more than 23.4 µM and the half-inhibitory concentration (IC50) is more than 23.4 µM.

`COC(=O)C(CCc1cc(OC)ccc1I)C1=CCC2(CC1)OCCO2` (stereo not drawn): the EC50 was more than 38 µM and the half-maximal inhibitory concentration (IC50) is more than 38 µM.

Turning to `CCP(CC)(c1ccccc1)=c1c(=O)c(Cl)c(Cl)c(=O)c1=O`, the EC50 is more than 200 µM and the IC50 was 27.5 µM.

Consider `CN1C(=O)c2ccccc2NC(=O)c2cnn(C)c21`, for which the result was inactive.

In the case of `c1ccc(CSC2(SCc3ccccc3)CCCCC2)cc1`, the EC50 was more than 200 µM and the 50% inhibitory concentration (IC50) was 77.6 µM.

On to `CC[C@@H]1C[C@@H](O)[C@@H]2[C@H](O)[C@H](O)CN2C1`, for which the EC50 is more than 200 µM and the half-inhibitory concentration (IC50) was more than 200 µM.

On to `O=[N+]([O-])c1ccc(C[P+](c2ccccc2)(c2ccccc2)c2ccccc2)cc1`, for which the EC50 was more than 200 µM; the IC50 was 87.1 µM and 40.7 µM.

As for `O=S(=O)(c1ccccc1)C1CN2OC1(S(=O)(=O)c1ccccc1)CC2c1ccc(Br)cc1` (stereo not drawn), the result was inactive.

As for `O=C1c2ccccc2-c2c1c1ccccc1c(=O)n2-c1cccnc1`, the EC50 is more than 30.9 µM and the concentration for half-maximal inhibition (IC50) came out at 7.08 µM.

Turning to `N#Cc1cc2c(n(C3OC(CO)C(O)C(O)C3O)c1=S)CCCC2` (stereo not drawn), the EC50 was more than 200 µM and the IC50 was more than 200 µM.

In the case of `Cn1cc(N)cc1C(=O)Nc1ccc(S(=O)(=O)O)c2cc(S(=O)(=O)O)ccc12`, the EC50 is more than 490 µM and the 50% inhibitory concentration (IC50) is more than 490 µM.

Regarding `Clc1ccc(C2SCc3nc4ccccc4n32)cc1` (stereo not drawn), the outcome was inactive.

For the compound `CCOC(=O)c1cc2c(nc1N)C(=O)CCCC2`, the EC50 was more than 200 µM and the 50% inhibitory concentration (IC50) was 148 µM.

Take `Nc1ncnc2c1N=CN(Oc1ccccc1)N2`: the result was inactive.

For `O=P1(NCCCl)OCCCN1CCCl` (stereo not drawn), the EC50 was more than 955 µM and the IC50 was more than 955 µM.

As for `S=C1NC2=C(COc3ccccc32)C(c2ccc(Cl)cc2)N1` (stereo not drawn), the EC50 was more than 200 µM and the IC50 is 23.4 µM.

For `O=C1CSC(Cc2nc3ccccc3o2)=N1`, the EC50 is more than 200 µM and the IC50 worked out at 4.79 µM.

For `Cn1c(=O)cc(C=Nc2ccc(S(N)(=O)=O)cc2)c2ccccc21`, the EC50 was more than 200 µM and the IC50 came to 1.51 µM.

In the case of `CC(C(=O)O)c1ccc(C(=O)c2cccs2)cc1` (stereo not drawn), the EC50 is more than 200 µM and the concentration for half-maximal inhibition (IC50) is more than 200 µM.

On to `Cn1c(=O)c2c(nc(Nc3ccc(Cl)cc3)n3c(=O)n(-c4ccccc4)c(=O)n23)n(C)c1=O`, for which the EC50 was more than 200 µM and the IC50 came out at 145 µM.

As for `CC(=O)C1N=Nc2nc3c(=O)n(C)c(=O)n(C)c3n2C1=O` (stereo not drawn), the EC50 was more than 200 µM and the IC50 is more than 200 µM.

Take `CC(C)N(C(=O)C12CC3CC(CC(C3)C1)C2)C(C)C`: the EC50 was more than 135 µM and the IC50 was determined as 41.7 µM.

`O=C1NC(=O)[C@@]2(CC[C@@H](O)C2)c2ccncc21`: the EC50 is more than 562 µM and the half-inhibitory concentration (IC50) came to 447 µM.

Consider `CC1(C)[C@H](C(=O)O)N2C(=O)[C@@H](NS(=O)(=O)c3ccc([N+](=O)[O-])cc3)[C@H]2S1(=O)=O`, for which the EC50 was more than 200 µM and the IC50 stood at 195 µM.

As to `CC1=C(CO)C(=O)OC(C(C)C2CCC3C4CC5OC56C(O)C(N5CC5)=CC(=O)C6(C)C4CCC23C)C1` (stereo not drawn), the outcome was inactive.

`CCc1c(Cc2ccccc2)n(COCCCO)c(=O)[nH]c1=O`: the EC50 is 7.08 µM and the half-inhibitory concentration (IC50) worked out at 10 µM.

Take `Cc1cc(C)c2c(c1)CC(C)(C)C(=O)OC2=O`: the EC50 was more than 112 µM and the IC50 was more than 112 µM.

For the compound `CC1CCN(Cc2cccnc2)CC1`, the result was inactive.

Consider `Nc1ccc(C(=O)N/C(=C\C=C\c2ccco2)c2nc3[nH]c(=S)[nH]c(=O)c3[nH]2)cc1`, for which the outcome was inactive.

`CCOC(=O)c1c(N)sc2c1CCCC2`: the EC50 is more than 200 µM and the IC50 turned out to be 56.2 µM.

`CN(C)CCCNC(=O)c1nc(NC(=O)c2nc(NC(=O)c3nc(NC(=O)c4ccc(C(=O)Nc5cn(C)c(C(=O)Nc6cn(C)c(C(=O)Nc7cn(C)c(C(=O)NCCCN(C)C)n7)n6)n5)cc4)cn3C)cn2C)cn1C`: the EC50 was more than 50.1 µM and the IC50 is more than 50.1 µM.

Take `O=S1(=O)C2CCCCC2(N2CCOCC2)C1c1ccccc1` (stereo not drawn): the EC50 is more than 407 µM and the concentration for half-maximal inhibition (IC50) came out at 45.7 µM.

For the compound `CC1=CSC2=NCCN12`, the EC50 is more than 200 µM and the IC50 was more than 200 µM.

Consider `CCC1(OC(C)=O)C(=O)OCc2c1cc1n(c2=O)Cc2cc3ccccc3nc2-1` (stereo not drawn), for which the EC50 was more than 10 µM and the half-inhibitory concentration (IC50) worked out at 0.129 µM.

On to `CCN1CCC(O)(c2ccc(Oc3ccc(C)cc3)cc2)C(C(=O)c2ccc(Oc3ccc(C)cc3)cc2)C1` (stereo not drawn), for which the EC50 was more than 200 µM and the IC50 was determined as 3.8 µM.

With `COc1cc(OC)c(/C=C\c2cc(/C=C/c3c(OC)cc(OC)cc3OC)c3ccccc3[n+]2C)c(OC)c1`, the EC50 was more than 7.94 µM and the IC50 turned out to be 0.355 µM.

As to `CCOP(=O)(Nc1ccccc1P(=O)(OCC)OCC)OCC`, the EC50 is more than 200 µM and the IC50 was more than 200 µM.

In the case of `OC(c1ccccc1)c1cccc(C(O)c2ccccc2)c1` (stereo not drawn), the EC50 is more than 123 µM and the concentration for half-maximal inhibition (IC50) is more than 123 µM.

As for `COc1ccc(-c2oc(C=Nc3ccccc3)c([N+](=O)[O-])c2-c2ccc(OC)c(OC)c2)cc1OC`, the EC50 is more than 45.7 µM and the half-maximal inhibitory concentration (IC50) was more than 45.7 µM.

Consider `CC1S/C(=N\N=C\c2ccc(Cl)cc2)N=C1c1c(O)c2ccccc2oc1=O` (stereo not drawn), for which the EC50 was more than 200 µM and the IC50 turned out to be 36.3 µM.

For `COc1nc2nc(C(O)C(O)CO)cnc2c(=O)n1C` (stereo not drawn), the EC50 is more than 891 µM, the result was inactive and the IC50 was more than 891 µM.

Consider `COc1ccc(Nc2nc(NNC(=O)Cc3ccccc3)nc(NNC(=O)c3ccncc3)n2)cc1`, for which the 50% effective concentration (EC50) was more than 178 µM and the IC50 came out at 174 µM.

Regarding `C=CCO[C@H]1CC[C@@]2(C)C(CC[C@]3(C)C2CC=C2[C@@H]4[C@@H](C)C(C)CC[C@]4(C(=O)O)CCC23C)C1(C)C` (stereo partly drawn), the result was inactive.

As to `CCN(CC)C1CCC(C2c3cc4c(cc3OC(N3CCOCC3)C2C)OCO4)CC1` (stereo not drawn), the EC50 is more than 100 µM and the IC50 came to 5.89 µM.

On to `CCCCCCNCCc1cnc[nH]1`, for which the EC50 was more than 200 µM and the IC50 was more than 200 µM.

On to `COC(=O)c1ccc(COC(=O)c2cc(C(=CCC[C@H]3CC[C@@]4(C)[C@@H](CC[C@@H]5[C@@H]4CC[C@]4(C)[C@@H](C(C)CCCC(C)C)CC[C@@H]54)C3)c3cc(Cl)c(OCc4ccc(C(=O)OC)cc4)c(C(=O)OCc4ccc(C(=O)OC)cc4)c3)cc(Cl)c2OCc2ccc(C(=O)OC)cc2)cc1` (stereo partly drawn), for which the EC50 is more than 200 µM and the IC50 was more than 200 µM.

As to `Cc1ccc(-n2c3nc(=O)n(C)c(=O)c-3cc3c(OCc4ccccc4)cccc32)cc1`, the EC50 was more than 19.5 µM and the 50% inhibitory concentration (IC50) was more than 19.5 µM.

Regarding `O=C(O)[C@@H]1CCCC[C@@H]1C(=O)N(C1CCCCC1)C1CCCCC1`, the EC50 is more than 77.6 µM and the IC50 is more than 77.6 µM.

For the compound `OC1(c2ccccc2)CC(c2ccccc2)c2ccccc2O1` (stereo not drawn), the EC50 was more than 200 µM and the IC50 amounted to 31.6 µM.

Regarding `O=C(O)c1nn(-c2ccccn2)c(O)c1N=Nc1ccc(/C=C\c2ccc(N=Nc3c(C(=O)O)nn(-c4ccccn4)c3O)cc2S(=O)(=O)O)c(S(=O)(=O)O)c1`, the EC50 is more than 1.48 µM and the 50% inhibitory concentration (IC50) was more than 1.48 µM.

`CN(C)CCC(/C=C/c1ccccc1)=N\Nc1c(F)c(F)c(F)c(F)c1F`: the result was inactive.

As to `Cc1ccc(C2=C(c3ccc(C)cc3)C(c3ccc(C)cc3)=C(c3ccc(C)cc3)C2=O)cc1`, the EC50 was more than 16.2 µM and the IC50 was more than 16.2 µM.

On to `O=S(=O)(O)c1ccc(N/N=C/c2ccccc2)cc1`, for which the EC50 was more than 832 µM and the IC50 stood at 794 µM.

Take `c1ccc(C(=C2C3CCC2C2CSCC32)c2ccccc2)cc1` (stereo not drawn): the EC50 is more than 93.3 µM and the 50% inhibitory concentration (IC50) amounted to 46.8 µM.

Take `O=C1OC(C2Cc3cc4c(cc3C2=O)CCC4)c2ccccc21` (stereo not drawn): the EC50 is more than 200 µM and the concentration for half-maximal inhibition (IC50) stood at 33.9 µM.

For `COC(=O)N/N=C(/Cc1occc(=O)c1O)C(=O)Nc1ccc([N+](=O)[O-])cc1[N+](=O)[O-]`, the EC50 was more than 575 µM and the IC50 is more than 575 µM.

With `COC(=O)c1ccc(/C=C/C2=CC(=O)C=CC2=O)cc1`, the EC50 was more than 200 µM and the concentration for half-maximal inhibition (IC50) is 2.09 µM.

As for `CC(C)C(N)S(=O)(=O)O` (stereo not drawn), the EC50 was more than 200 µM and the 50% inhibitory concentration (IC50) was more than 200 µM.
